Values joined by “and” are separate entries in the source; they are usually repeats but may differ in a detail not shown here. Equal entries are not always repeated. Active and inactive are the calls of the source. The rule behind the calls is not given here.
What was measured:
A2780 [1] = experiment: Tested for the cytotoxicity in A2780cisR ovarian cell line (cisR denotes resistance to cisplatin); assay type: functional, cell-based; conditions: Homo sapiens
A2780 [2] = experiment: Tested for the cytotoxicity in A2780 ovarian cell line; assay type: functional, cell-based; conditions: Homo sapiens
CH1 [3] = experiment: Tested for the cytotoxicity in CHIcisR ovarian cell line; assay type: functional, cell-based; conditions: Homo sapiens, CH1cisR
CH1 [4] = experiment: Tested for the cytotoxicity in CHI ovarian cell line; assay type: functional, cell-based; conditions: Homo sapiens
COLO 205 [5] = experiment: Concentration required to restrict cell growth to 50% on continuous exposure for 48 hr in Colon (CoIo 205) cell line; assay type: functional; conditions: Homo sapiens, COLO 205, 48 h
COLO 205 [6] = experiment: Concentration required to decrease cell population by 50% on continuous exposure for 48 hr in Colon (COLO 205) cell line C; assay type: functional; conditions: Homo sapiens, COLO 205, 48 h; read-out: LC50 (the source's name)
MDA-MB-435 [7] = experiment: Concentration required to restrict cell growth to 50% on continuous exposure for 48 hr in Breast (MDA-MB-435) cell line; assay type: functional; conditions: Homo sapiens, MDA-MB-435, 48 h
MDA-MB-435 [8] = experiment: Concentration required to decrease cell population by 50% on continuous exposure for 48 hr in Breast (MDA-MB-435) cell line; assay type: functional; conditions: Homo sapiens, MDA-MB-435, 48 h; read-out: LC50 (the source's name)
NCI-H522 [9] = experiment: Concentration required to restrict cell growth to 50% on continuous exposure for 48 hr in Lung ([…]) cell line; assay type: functional; conditions: Homo sapiens, NCI-H522, 48 h
NCI-H522 [10] = experiment: Concentration required to decrease cell population by 50% on continuous exposure for 48 hr in Lung ([…]) cell line; assay type: functional; conditions: Homo sapiens, NCI-H522, 48 h; read-out: LC50 (the source's name)
RXF 393 [11] = experiment: Concentration required to decrease cell population by 50% on continuous exposure for 48 hr in Renal (RXF 393) cell line; assay type: functional; conditions: Homo sapiens, RXF 393, 48 h; read-out: LC50 (the source's name)
RXF 393 [12] = experiment: Concentration required to restrict cell growth to 50% on continuous exposure for 48 hr in Renal (RXF 393) cell line; assay type: functional; conditions: Homo sapiens, RXF 393, 48 h
SNB-75 [13] = experiment: Concentration required to restrict cell growth to 50% on continuous exposure for 48 hr in CNS (SNB-75) cell line; assay type: functional; conditions: Homo sapiens, SNB-75, 48 h
SK-OV-3 = experiment: Tested for the cytotoxicity in SKOV-3 ovarian cell line; assay type: functional, cell-based; conditions: Homo sapiens
SNB-75 [14] = experiment: Concentration required to decrease cell population by 50% on continuous exposure for 48 hr in CNS (SNB-75) cell line; assay type: functional; conditions: Homo sapiens, SNB-75, 48 h; read-out: LC50 (the source's name)
SK-MEL-5 [15] = experiment: Concentration required to decrease cell population by 50% on continuous exposure for 48 hr in Melanoma (SK-MEL-5) cell line; assay type: functional; conditions: Homo sapiens, SK-MEL-5, 48 h; read-out: LC50 (the source's name)
SK-MEL-5 [16] = experiment: Concentration required to restrict cell growth to 50% on continuous exposure for 48 hr in Melanoma (SK-MEL-5) cell line; assay type: functional; conditions: Homo sapiens, SK-MEL-5, 48 h
[17] = Ratio of cytotoxicity of cisR/normal cell line; assay type: functional
[18] = Ratio of cytotoxicity of cisR/normal cell line; not active; assay type: functional

Compound	IC50 (A2780 [1])	IC50 (A2780 [2])	IC50 (CH1 [3])	IC50 (CH1 [4])	GI50 (COLO 205 [5])	CC50 (COLO 205 [6])	GI50 (MDA-MB-435 [7])	CC50 (MDA-MB-435 [8])	GI50 (NCI-H522 [9])	CC50 (NCI-H522 [10])	CC50 (RXF 393 [11])	GI50 (RXF 393 [12])	GI50 (SNB-75 [13])	IC50 (SK-OV-3)	CC50 (SNB-75 [14])	CC50 (SK-MEL-5 [15])	GI50 (SK-MEL-5 [16])	Resistance factor [17]	Resistance factor [18]
COc1cc2c(cc1OC)N(C(=O)OCCS(=O)(=O)c1ccccc1)[C@@H](O)[C@@H]1CCCN1C2=O	490 nM	480 nM	470 nM	400 nM	190 nM	710 nM	450 nM	4330 nM	110 nM	1380 nM	2970 nM	240 nM	720 nM	560 nM	9000 nM	6780 nM	290 nM	1 and 1.2	
COc1cc2c(cc1OC)N(C(=O)OCCSc1ccccc1)[C@@H](O)[C@@H]1CCCN1C2=O	> 25000 nM	> 25000 nM	> 25000 nM	> 25000 nM										> 25000 nM					inactive
COc1cc2c(cc1OC)C(=O)N1CCC[C@H]1C=N2	155 nM	64 nM	110 nM	82 nM										1700 nM				2.4 and 1.3	
